Laboratory results from patent publication US20090155209A1, “NOVEL MACROCYCLIC INHIBITORS OF HEPATITIS C VIRUS REPLICATION” (priority 2007, published 2009).

What follows are compounds tested against NS3-NS4 (Hepatitis C virus genotype 1a, UniProt P27958) (assay: NS3-NS4 activity, IC50 (Example 37, Table 8)).
NS3-NS4, sequence (P27958 1027-1657): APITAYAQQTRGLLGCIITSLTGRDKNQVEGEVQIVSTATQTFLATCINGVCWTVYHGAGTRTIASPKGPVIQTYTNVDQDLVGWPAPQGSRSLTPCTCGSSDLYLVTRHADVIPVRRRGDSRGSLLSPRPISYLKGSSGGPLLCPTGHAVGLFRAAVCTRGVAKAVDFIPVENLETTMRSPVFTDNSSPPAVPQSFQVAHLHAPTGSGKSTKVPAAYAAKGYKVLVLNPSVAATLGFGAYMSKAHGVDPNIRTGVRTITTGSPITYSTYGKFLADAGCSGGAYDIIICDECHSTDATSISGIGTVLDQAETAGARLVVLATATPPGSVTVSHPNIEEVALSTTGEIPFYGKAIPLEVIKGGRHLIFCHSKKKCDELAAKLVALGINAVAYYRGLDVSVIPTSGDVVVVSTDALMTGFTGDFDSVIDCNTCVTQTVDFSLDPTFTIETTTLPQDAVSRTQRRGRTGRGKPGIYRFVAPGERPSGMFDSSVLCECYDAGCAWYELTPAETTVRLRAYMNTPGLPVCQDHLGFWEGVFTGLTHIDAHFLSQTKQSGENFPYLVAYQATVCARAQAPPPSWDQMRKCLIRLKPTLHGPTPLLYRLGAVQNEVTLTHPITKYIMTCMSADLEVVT
NS3-NS4, sequence (P27958 1658-1711): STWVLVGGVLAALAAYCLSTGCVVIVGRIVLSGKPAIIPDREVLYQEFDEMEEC
Assay type: biochemical
For `Cc1ccc(CS(=O)(=O)NC(=O)[C@@]23C[C@H]2CCCCCCC[C@H](NC(=O)OC(C)(C)C)C(=O)N2C[C@H](OC(=O)N4Cc5cccc(F)c5C4)C[C@H]2C(=O)N3)c(C)c1` [Compound 628], the IC50 was less than 100 nM. In the case of `Cc1ccccc1CS(=O)(=O)NC(=O)[C@@]12C[C@H]1/C=C\CCCCC[C@H](NC(=O)OC(C)(C)C)C(=O)N1C[C@H](OC(=O)N3Cc4cccc(F)c4C3)C[C@H]1C(=O)N2` [Compound 513], the IC50 is reported as less than 100 nM. Work on `CC(C)(C)OC(=O)N[C@H]1CCCCCCC[C@@H]2C[C@@]2(C(=O)NS(=O)(=O)Cc2ccc(F)cc2)NC(=O)[C@@H]2C[C@@H](OC(=O)N3Cc4cccc(F)c4C3)CN2C1=O` [Compound 609] yielded an IC50 of less than 100 nM. Work on `COc1cccc(CS(=O)(=O)NC(=O)[C@@]23C[C@H]2CCCCCCC[C@H](NC(=O)OC(C)(C)C)C(=O)N2C[C@H](OC(=O)N4Cc5cccc(F)c5C4)C[C@H]2C(=O)N3)c1` [Compound 616] yielded an IC50 of less than 100 nM. `CC(C)(C)OC(=O)N[C@H]1CCCCCCC[C@@H]2C[C@@]2(C(=O)NS(=O)(=O)Cc2cccc(Cl)c2)NC(=O)[C@@H]2C[C@@H](OC(=O)N3Cc4cccc(F)c4C3)CN2C1=O` [Compound 611] gave an IC50 of less than 100 nM. With `CC(C)(C)OC(=O)N[C@H]1CCCCCCC[C@@H]2C[C@@]2(C(=O)NS(=O)(=O)Cc2ccc(Cl)cc2)NC(=O)[C@@H]2C[C@@H](OC(=O)N3Cc4cccc(F)c4C3)CN2C1=O` [Compound 612] the IC50 was less than 100 nM. Compound `CC(C)(C)OC(=O)N[C@H]1CCCCCCC[C@@H]2C[C@@]2(C(=O)NS(=O)(=O)Cc2c(Cl)cccc2Cl)NC(=O)[C@@H]2C[C@@H](OC(=O)N3Cc4cccc(F)c4C3)CN2C1=O` [Compound 626] has an IC50 of less than 100 nM. `CC(C)(C)OC(=O)N[C@H]1CCCCCCC[C@@H]2C[C@@]2(C(=O)NS(=O)(=O)Cc2ccc(C(F)(F)F)cc2C(F)(F)F)NC(=O)[C@@H]2C[C@@H](OC(=O)N3Cc4cccc(F)c4C3)CN2C1=O` [Compound 633] gave an IC50 of less than 100 nM. Compound `CC(C)(C)OC(=O)N[C@H]1CCCCCCC[C@@H]2C[C@@]2(C(=O)NS(=O)(=O)c2cc(Cl)cs2)NC(=O)[C@@H]2C[C@@H](OC(=O)N3Cc4cccc(F)c4C3)CN2C1=O` [Compound 642] has an IC50 of less than 100 nM. Compound `CC(C)(C)OC(=O)N[C@H]1CCCCC/C=C\[C@@H]2C[C@@]2(C(=O)NOCC2CC2)NC(=O)[C@@H]2C[C@@H](OC(=O)N3Cc4cccc(F)c4C3)CN2C1=O` [Compound 717] has an IC50 of less than 100 nM. `CC(C)(C)OC(=O)N[C@H]1CCCCCCC[C@@H]2C[C@@]2(C(=O)NS(=O)(=O)Cc2cc(C(F)(F)F)cc(C(F)(F)F)c2)NC(=O)[C@@H]2C[C@@H](OC(=O)N3Cc4cccc(F)c4C3)CN2C1=O` [Compound 634] was tested, and the IC50 was less than 100 nM. In the case of `COc1cccc(CS(=O)(=O)NC(=O)[C@@]23C[C@H]2/C=C\CCCCC[C@H](NC(=O)OC(C)(C)C)C(=O)N2C[C@H](OC(=O)N4Cc5cccc(F)c5C4)C[C@H]2C(=O)N3)c1` [Compound 516], the IC50 is reported as less than 100 nM. In the case of `CC(C)(C)OC(=O)N[C@H]1CCCCCCC[C@@H]2C[C@@]2(C(=O)NS(=O)(=O)Cc2ccccc2F)NC(=O)[C@@H]2C[C@@H](OC(=O)N3Cc4cccc(F)c4C3)CN2C1=O` [Compound 607], the IC50 is reported as less than 100 nM. Work on `CC(C)(C)OC(=O)N[C@H]1CCCCC/C=C\[C@@H]2C[C@@]2(C(=O)NS(=O)(=O)c2ccc(Cl)s2)NC(=O)[C@@H]2C[C@@H](OC(=O)N3Cc4cccc(F)c4C3)CN2C1=O` [Compound 535] yielded an IC50 of less than 100 nM. `CC(C)(C)OC(=O)N[C@H]1CCCCCCC[C@@H]2C[C@@]2(C(=O)NS(=O)(=O)Cc2cc(F)cc(F)c2)NC(=O)[C@@H]2C[C@@H](OC(=O)N3Cc4cccc(F)c4C3)CN2C1=O` [Compound 623] showed an IC50 of less than 100 nM. Work on `Cc1ccc(CS(=O)(=O)NC(=O)[C@@]23C[C@H]2CCCCCCC[C@H](NC(=O)OC(C)(C)C)C(=O)N2C[C@H](OC(=O)N4Cc5cccc(F)c5C4)C[C@H]2C(=O)N3)cc1` [Compound 615] yielded an IC50 of less than 100 nM. `COc1cccc(CS(=O)(=O)NC(=O)[C@@]23C[C@H]2CCCCCCC[C@H](NC(=O)OC(C)(C)C)C(=O)N2C[C@H](OC(=O)N4Cc5cccc(F)c5C4)C[C@H]2C(=O)N3)c1OC` [Compound 631] gave an IC50 of less than 100 nM. `Cc1ccc(CS(=O)(=O)NC(=O)[C@@]23C[C@H]2CCCCCCC[C@H](NC(=O)OC(C)(C)C)C(=O)N2C[C@H](OC(=O)N4Cc5cccc(F)c5C4)C[C@H]2C(=O)N3)cc1C` [Compound 630] showed an IC50 of less than 100 nM. Work on `CC(C)(C)OC(=O)N[C@H]1CCCCCC2C([C@@H]3C[C@@]3(C(=O)NS(=O)(=O)C3CC3)NC(=O)[C@@H]3C[C@@H](OC(=O)N4Cc5cccc(F)c5C4)CN3C1=O)C2(Cl)Cl` (some centres unmarked) [Compound 907] yielded an IC50 of 100 to 1000 nM. Compound `CC(C)(C)OC(=O)N[C@H]1CCCCCCC[C@@H]2C[C@@]2(C(=O)NS(=O)(=O)c2cccnc2Cl)NC(=O)[C@@H]2C[C@@H](OC(=O)N3Cc4cccc(F)c4C3)CN2C1=O` [Compound 635] has an IC50 of less than 100 nM. `CC(C)(C)ONC(=O)[C@@]12C[C@H]1/C=C\CCCCC[C@H](NC(=O)OC(C)(C)C)C(=O)N1C[C@H](OC(=O)N3Cc4cccc(F)c4C3)C[C@H]1C(=O)N2` [Compound 716] was tested, and the IC50 was less than 100 nM. `Cc1ccc(S(=O)(=O)NC(=O)[C@@]23C[C@H]2CCCCCCC[C@H](NC(=O)OC(C)(C)C)C(=O)N2C[C@H](OC(=O)N4Cc5cccc(F)c5C4)C[C@H]2C(=O)N3)s1` [Compound 644] gave an IC50 of less than 100 nM. With `CC(C)(C)OC(=O)N[C@H]1CCCCCCC[C@@H]2C[C@@]2(C(=O)NS(=O)(=O)c2cc(Cl)c(Cl)s2)NC(=O)[C@@H]2C[C@@H](OC(=O)N3Cc4cccc(F)c4C3)CN2C1=O` [Compound 643] the IC50 was less than 100 nM. For `CC(C)(C)OC(=O)N[C@H]1CCCCC/C=C\[C@@H]2C[C@@]2(C(=O)NOc2cccc(Cl)c2)NC(=O)[C@@H]2C[C@@H](OC(=O)N3Cc4cccc(F)c4C3)CN2C1=O` [Compound 706], the IC50 was less than 100 nM. Compound `CC(C)(C)OC(=O)N[C@H]1CCCCCCC[C@@H]2C[C@@]2(C(=O)NS(=O)(=O)Cc2cc(Cl)ccc2Cl)NC(=O)[C@@H]2C[C@@H](OC(=O)N3Cc4cccc(F)c4C3)CN2C1=O` [Compound 625] has an IC50 of less than 100 nM. Compound `CC(C)(C)OC(=O)N[C@H]1CCCCCCC[C@@H]2C[C@@]2(C(=O)NS(=O)(=O)c2ccc(Cl)nc2)NC(=O)[C@@H]2C[C@@H](OC(=O)N3Cc4cccc(F)c4C3)CN2C1=O` [Compound 636] has an IC50 of less than 100 nM. `CC(C)(C)OC(=O)N[C@H]1CCCCCCC[C@@H]2C[C@@]2(C(=O)NS(=O)(=O)Cc2ccccc2C(F)(F)F)NC(=O)[C@@H]2C[C@@H](OC(=O)N3Cc4cccc(F)c4C3)CN2C1=O` [Compound 617] was tested, and the IC50 was less than 100 nM. In the case of `CC(C)(C)OC(=O)N[C@H]1CCCCC/C=C\[C@@H]2C[C@@]2(C(=O)NOc2ccc(F)cc2)NC(=O)[C@@H]2C[C@@H](OC(=O)N3Cc4cccc(F)c4C3)CN2C1=O` [Compound 705], the IC50 is reported as less than 100 nM. Compound `CC(C)(C)OC(=O)N[C@H]1CCCCCCC[C@@H]2C[C@@]2(C(=O)NS(=O)(=O)Cc2cccc(C(F)(F)F)c2)NC(=O)[C@@H]2C[C@@H](OC(=O)N3Cc4cccc(F)c4C3)CN2C1=O` [Compound 618] has an IC50 of less than 100 nM. `CC(C)(C)OC(=O)N[C@H]1CCCCCCC[C@@H]2C[C@@]2(C(=O)NS(=O)(=O)Cc2ccc(C(F)(F)F)cc2)NC(=O)[C@@H]2C[C@@H](OC(=O)N3Cc4cccc(F)c4C3)CN2C1=O` [Compound 619] showed an IC50 of less than 100 nM. Compound `Cc1ccccc1ONC(=O)[C@@]12C[C@H]1CCCCCCC[C@H](NC(=O)OC(C)(C)C)C(=O)N1C[C@H](OC(=O)N3Cc4cccc(F)c4C3)C[C@H]1C(=O)N2` [Compound 804] has an IC50 of less than 100 nM. With `CC(C)(C)OC(=O)N[C@H]1CCCCCC2CC2[C@@H]2C[C@@]2(C(=O)NOc2ccccc2)NC(=O)[C@@H]2C[C@@H](OC(=O)N3Cc4cccc(F)c4C3)CN2C1=O` (some centres unmarked) [Compound 906] the IC50 was less than 100 nM. `CC(C)(C)OC(=O)N[C@H]1CCCCCCC[C@@H]2C[C@@]2(C(=O)NS(=O)(=O)c2ccc(Cl)s2)NC(=O)[C@@H]2C[C@@H](OC(=O)N3Cc4cccc(F)c4C3)CN2C1=O` [Compound 641] was tested, and the IC50 was less than 100 nM. `COc1csc(S(=O)(=O)NC(=O)[C@@]23C[C@H]2CCCCCCC[C@H](NOC(=O)C(C)(C)C)C(=O)N2C[C@H](OC(=O)N4Cc5cccc(F)c5C4)C[C@H]2C(=O)N3)c1` [Compound 647] gave an IC50 of less than 100 nM. In the case of `CC(C)(C)OC(=O)N[C@H]1CCCCCCC[C@@H]2C[C@@]2(C(=O)NS(=O)(=O)Cc2ccc(F)c(F)c2)NC(=O)[C@@H]2C[C@@H](OC(=O)N3Cc4cccc(F)c4C3)CN2C1=O` [Compound 622], the IC50 is reported as less than 100 nM. `CC(C)(C)OC(=O)N[C@H]1CCCCCCC[C@@H]2C[C@@]2(C(=O)NS(=O)(=O)Cc2cccc(F)c2)NC(=O)[C@@H]2C[C@@H](OC(=O)N3Cc4cccc(F)c4C3)CN2C1=O` [Compound 608] gave an IC50 of less than 100 nM. In the case of `Cc1cc(S(=O)(=O)NC(=O)[C@@]23C[C@H]2/C=C\CCCCC[C@H](NC(=O)OC(C)(C)C)C(=O)N2C[C@H](OC(=O)N4Cc5cccc(F)c5C4)C[C@H]2C(=O)N3)sc1C` [Compound 540], the IC50 is reported as less than 100 nM. In the case of `Cc1cc(S(=O)(=O)NC(=O)[C@@]23C[C@H]2CCCCCCC[C@H](NC(=O)OC(C)(C)C)C(=O)N2C[C@H](OC(=O)N4Cc5cccc(F)c5C4)C[C@H]2C(=O)N3)sc1C` [Compound 646], the IC50 is reported as less than 100 nM. `Cc1cc(S(=O)(=O)NC(=O)[C@@]23C[C@H]2CCCCCCC[C@H](NC(=O)OC(C)(C)C)C(=O)N2C[C@H](OC(=O)N4Cc5cccc(F)c5C4)C[C@H]2C(=O)N3)oc1C` [Compound 640] gave an IC50 of less than 100 nM. For `CC(C)(C)OC(=O)N[C@H]1CCCCCCC[C@@H]2C[C@@]2(C(=O)NS(=O)(=O)Cc2cc(F)ccc2F)NC(=O)[C@@H]2C[C@@H](OC(=O)N3Cc4cccc(F)c4C3)CN2C1=O` [Compound 620], the IC50 was less than 100 nM. With `COc1ccc(S(=O)(=O)NC(=O)[C@@]23C[C@H]2/C=C\CCCCC[C@H](NC(=O)OC(C)(C)C)C(=O)N2C[C@H](OC(=O)N4Cc5cccc(F)c5C4)C[C@H]2C(=O)N3)cn1` [Compound 532] the IC50 was less than 100 nM. `Cc1ccccc1ONC(=O)[C@@]12C[C@H]1/C=C\CCCCC[C@H](NC(=O)OC(C)(C)C)C(=O)N1C[C@H](OC(=O)N3Cc4cccc(F)c4C3)C[C@H]1C(=O)N2` [Compound 701] was tested, and the IC50 was less than 100 nM. `CC(C)(C)OC(=O)N[C@H]1CCCCCCC[C@@H]2C[C@@]2(C(=O)NS(=O)(=O)Cc2c(F)cccc2F)NC(=O)[C@@H]2C[C@@H](OC(=O)N3Cc4cccc(F)c4C3)CN2C1=O` [Compound 621] gave an IC50 of less than 100 nM. For `CC(C)(C)OC(=O)N[C@H]1CCCCCCC[C@@H]2C[C@@]2(C(=O)NS(=O)(=O)Cc2ccc(Cl)cc2Cl)NC(=O)[C@@H]2C[C@@H](OC(=O)N3Cc4cccc(F)c4C3)CN2C1=O` [Compound 624], the IC50 was less than 100 nM.
